The text below walks through data of US10201526B2, “Compositions and methods for inhibiting the growth of neisseria gonorrhoeae” (Research Institute at Nationwide Children's Hospital, priority 2015, dated 2019).

Series [1] is described as follows: Stability at ambient conditions (cGMP material). It counts as physicochemical. The source says:
AR-12 was initially developed by Arno Therapeutics (Arno) in 2008 for an oncology indication. In support of this oncology program, Arno initiated an Investigational New Drug (IND) enabling toxicology program, which included standard Good Laboratory Practice (GLP) tests (e. g. genotoxicity), a battery of safety pharmacology studies, and 28-day general toxicity assessments performed in rats and dogs. Before Arno's involvement, the National Cancer Institute had generated preclinical ADME (i. e., absorption, distribution, metabolism, and excretion) and toxicology data in the mouse model as part of the Rapid Access to Intervention Development (RAID) program. AR-12 synthesis was optimized and scaled-up to approximately 50 kg (purity >99.5%; stability ≥24 months at ambient conditions) under Current Good Manufacturing Practices (cGMP) conditions in anticipation of continued clinical development in the oncology setting.

A further series deals with Ng. Briefly: Antimicrobial disk diffusion assays. As to conditions: no human cells. Further details: species or system Neisseria gonorrhoeae. The source says: This effect was specific to infection of human cells in that AR-12 was not effective against the Ng by antimicrobial disk diffusion assays, which prohibit Ng growth on agar plates.
A general note: In agar diffusion tests the substance spreads into inoculated agar from a disc or well.

In series [2] the test system is Ng strains 1291 and (MDR) WHO-M. In words: Modified gentamicin survival assay, drug added to established Ng infection of PEX cells. It is filed as cell-based, Neisseria gonorrhoeae. The procedure: Modified gentamicin survival assays were performed in which pex cells were challenged with our preferred laboratory Ng strain, 1291, or the MDR Ng strain, WHO-M (beta-lactam-, ciprofloxacin-, and rifampicin-resistant; plus a mtrR mutation that could effect resistance to other compounds (35)). Infections were allowed to proceed for 90 min to allow Ng to adhere to and invade PEX cells. Vehicle control, AR-12, ceftriaxone, or gentamicin was then added to established infections.
At the indicated times post-challenge, the infection medium was removed, the PEX cell monolayers were rinsed and lysed, and viable Ng were enumerated by counting CFUs after plating serial dilutions of the PEX cell lysates. The percentage of Ng that survived the test treatment was determined as a function of the infection inoculum. In this aspect, the units are colony forming units—percent survival calculated as: [(#CFU (x dilution factor)) divided by (number of bacteria used as the infection inoculum (˜typically 1×10^7 bacteria per ml))×100]. A significant reduction (at least about 300 fold) in viable Ng was observed following a 3-hour incubation with 10 μM AR-12 (FIG. 2A).
Concentrations of AR-12 tested are shown on the x-axis. “None” refers to vehicle control.

Series [3] in a line: Phase I oncology study of AR-12. It counts as in vivo, human. The text has this: AR-12 was originally investigated in a Phase I oncology study (27), an IND (IND #103799) was previously filed with the Food and Drug Administration (FDA), and an Investigational Medicinal Product Dossier (IMPD) was filed with the Medicines and Healthcare Products Regulatory Agency (MHRA Reference: 35725/0001/001-0001 [EudraCT Number: 2009-014285-25]) in the United Kingdom, which enabled the Phase I study entitled: “A Phase I Study of AR-12 (2-Amino-N-[4-[5-(2-phenanthrenyl)-3-(trifluoromethyl)-1H-pyrazol-1-yl]phenyl]-acetamide) in Adult Patients With Advanced or Recurrent Solid Tumors or Lymphoma, for Which No Standard Therapy Is Available”. […] Thirty-five patients were enrolled at nine dose levels. With the original formulation tested, the recommended oncology Phase II dose was 800 mg twice daily.
The half-life in humans is long and is estimated to be approximately 60 hours. […] This is a favorable property for the treatment of Ng, which is, with rare exception, a mucosal pathogen. AR-12 is slowly released from the tissue back into the bloodstream and slowly excreted, which explains its long half-life.

The conditions of series [4]: preclinical studies (ref. 36); cited from earlier work.
The test system of series [5] is Ng invasion of and survival within PEX cells. Briefly: Gentamicin-survival assays: Ng invasion of and survival within PEX cells with estradiol, progesterone, Akt inhibitor. It is filed as cell-based, Neisseria gonorrhoeae. The procedure:
Progesterone (Pg) augments gonococcal invasion of and survival within PEX cells. […] Therefore, to more closely mimic the luteal phase of the menses cycle, when Pg concentrations fluctuate between 3 nM and 30 nM, the effect of Pg on Ng invasion of and survival within PEX cells was evaluated using a gentamicin-survival assays with 0.4 nM of estradiol (E2) and variable concentrations of Pg (FIG. 1)
Further studies were conducted to determine if Pg augmented the ability of gonococci to survive intracellularly within PEX cells. Following gentamicin treatment (to kill extracellular bacteria), infected cell monolayers were either lysed (releasing the invasive Ng) and serial dilutions were plated, or they were re-incubated in antibiotic free medium for 1 or 3 hours longer before plating the PEX cell lysate and quantitating colony forming units. Akt inhibitor VII was included or omitted from these experiments.

Where [6] appears, read: by 24 hours post-AR-12 treatment.

For the compound `NCC(=O)Nc1ccc(-n2nc(C(F)(F)F)cc2-c2ccc3c(ccc4ccccc43)c2)cc1` [AR-12, 2-amino-N-(4-(5-(phenanthren-2-yl)-3-(trifluoromethyl)-1H-pyrazol-1-yl)phenyl)acetamide], the stability in series [1] was at least 24 months. Also, the “effectiveness against Ng on agar plates” value in the series on Ng is listed as “not effective”. Also, the “reduction in viable Ng” value in series [2] (10 μM AR-12, 3-hour incubation, Ng-infected PEX cells (FIG. 2A)) is listed as “at least 300 fold”. The “viable Ng recovered” value in series [2] (10 μM AR-12, 24 h (FIG. 2C)) is “no viable Ng were recovered”. Besides, the “reduction of the amount of viable Ng (CFU) compared to an untreated infection” value in series [2] (10 μM AR-12, after about 6 hours (FIG. 2E)) is “at least 3 log”. Also, the “reduction of the amount of viable Ng (CFU) compared to an untreated infection” value in series [2] (10 μM AR-12, after about 24 hours (FIG. 2E)) is on record as “at least 7 log”. In series [2] (AR-12 treatment 6 h, Ng-infected PEX cells (FIG. 2B)), the “reduction in the number of viable Ng” value is recorded as “at least 600 fold”. Besides, in series [2] (setting [6]), the “killing of Ng (bactericidal effect)” value is on record as 100% and the “spontaneous resistance to AR-12” value was “no spontaneous resistance”. Besides, the “dose limiting toxicities (DLT)” value in series [3] (doses appropriate in the oncology setting, human) is “fatigue, dizziness, and skin rash”. Moreover, the half-life (as a rule, how long it takes for the measured level to halve) in series [3] (human, blood, oral dosage form, Phase I study, estimated, read-out: half-life in humans (converted)) is about 60 h. Also, in series [3] (long-term oral exposures up to 33 weeks, phase I study), the safety profile entry is on record as “acceptable safety profile”. Further, the “recommended oncology Phase II dose” value in series [3] (original formulation, human) came out at 800 mg twice daily. Besides, in series [4], the “accumulation in tissues relative to blood level concentrations” value is reported as “exceeding the blood level concentrations several fold” and the “blood brain barrier penetration” value is recorded as “rapid blood brain barrier penetration”.

On to `CC(=O)[C@H]1CC[C@H]2[C@@H]3CCC4=CC(=O)CC[C@]4(C)[C@H]3CC[C@]12C` [Pg, Progesterone], for which the “gonococcal invasion of PEX cells” value in series [5] (0.4 nM estradiol, variable concentrations of Pg (FIG. 1A)) is recorded as “increased with increasing concentrations of Pg”. The “ability of gonococci to invade, as well as survive within, PEX cells” value in series [5] (presence of Pg, 1 or 3 hours post-invasion (FIG. 1B)) is “enhanced”.
